Consider 17 compounds from ChEMBL document CHEMBL3046057, “Synthesis and leishmanicidal activity of quinolinetriclosan and quinolineeugenol hybrids” (Med Chem Res, 2012).

Converted amounts (≈) assume the structure as drawn.

The nature of data set [1]: Selectivity index, ratio of LC50 for human U937 cells to EC50 for intracellular amastigote stage of Leishmania panamensis MHOM/CO/87/UA140epir GFP infected in human U937 cells. The data set is classed as toxicity, cell-based, U-937. The note with it: for selectivity ratio: read-out: Selectivity Index.
Data set [2] concerns Leishmania panamensis. In words: Leishmanicidal activity against intracellular amastigote stage of Leishmania panamensis MHOM/CO/87/UA140epir GFP infected in human U937 cells assessed as parasite viability after 72 hr by flow cytometric analysis. The data set is classed as functional, organism-based, U-937.
A short description of data set [3]: Selectivity index, ratio of LC50 for human U937 cells to EC50 for axenic amastigote stage of Leishmania panamensis MHOM/CO/87/UA140epir GFP. The data set is classed as toxicity, cell-based, U-937. The note with it: for selectivity ratio: U937 cells, axenic amastigotes of Leishmania panamensis, read-out: Selectivity Index.
Data set [4] relates to Leishmania panamensis. In words: Leishmanicidal activity against axenic amastigote stage of Leishmania panamensis MHOM/CO/87/UA140epir GFP assessed as parasite viability after 72 hr by MTT assay. The data set is classed as functional, organism-based.
Data set [5] in a line: (§1) Cytotoxicity against Homo sapiens (human) U937 cells assessed as cell viability after 72 hr by MTT assay. The data set is classed as cell-based, U-937. The note with it: U937 cells, read-out: LC50.
A further data set concerns U-937. The description is as §1. It is filed as cell-based. The note with it: u-937, 72 h.
[6] abbreviates: Leishmania panamensis, MHOM/CO/87/UA140epir GFP, U-937, 72 h, read-out: EC50.
The mark [7] stands for this setting: Leishmania panamensis, MHOM/CO/87/UA140epir GFP, 72 h, read-out: EC50.

Turning to `Cc1ccc2cccc(OCCCCCOc3cc(Cl)ccc3Oc3ccc(Cl)cc3Cl)c2n1`, the selectivity ratio in data set [1] amounted to 24.6; in data set [3], 14.4. The results for the EC50 in the data set on Leishmania panamensis [2] (setting [6]) and in the data set on Leishmania panamensis [4] (setting [7]) were 2.4 µg/mL (≈ 4.64 µM) and 4.1 µg/mL (≈ 7.93 µM), respectively. Moreover, the CC50 at 72 h in data set [5] amounted to 59.2 µg/mL (≈ 115 µM).

For MEGLUMINE ANTIMONATE, the “Selectivity Index” value is given as more than 147.05 in data set [1] (u-937) and more than 1 in data set [3] (u-937). Besides, the EC50 in the data set on Leishmania panamensis [2] (u-937) is 6.8 µg/mL; in the data set with Leishmania panamensis [4], more than 1000 µg/mL. For the same compound, the LC50 in the data set on U-937 is more than 1000 µg/mL.

`Cc1ccc2cccc(OCCCOc3cc(Cl)ccc3Oc3ccc(Cl)cc3Cl)c2n1`: the selectivity ratio in data set [1] was more than 31.2; in data set [3] it was more than 8.5. The values for the EC50 in the data set on Leishmania panamensis [2] (setting [6]) and with Leishmania panamensis [4] (setting [7]) were 6.4 µg/mL (≈ 13.1 µM) and 23.6 µg/mL (≈ 48.3 µM), respectively. Besides, in data set [5], the CC50 at 72 h was more than 200 µg/mL.

Take `C=CCc1ccc(OCCCCCCCCCCCCOc2cccc3ccc(C)nc23)c(OC)c1`: the selectivity ratio in data set [1] worked out at 4.7. In addition, the EC50 in the data set with Leishmania panamensis [2] (setting [6]) was 17.4 µg/mL (≈ 35.5 µM); with Leishmania panamensis [4] (setting [7]), more than 100 µg/mL. Also, the CC50 at 72 h in data set [5] was 82.9 µg/mL (≈ 169 µM).

Take `Cc1ccc2cccc(OCCCCCCCCCOc3cc(Cl)ccc3Oc3ccc(Cl)cc3Cl)c2n1`: in data set [3], the selectivity ratio is more than 2. For the same compound, the EC50 in the data set on Leishmania panamensis [4] (setting [7]) is more than 100 µg/mL. Further, in data set [5], the CC50 at 72 h is more than 200 µg/mL.

Take `C=CCc1ccc(OCCCCCCCCCOc2cccc3ccc(C)nc23)c(OC)c1`: the selectivity ratio in data set [3] was 0.7. Moreover, in the data set on Leishmania panamensis [4] (setting [7]), the EC50 was 21.1 µg/mL (≈ 47.1 µM). The CC50 at 72 h in data set [5] amounted to 14.1 µg/mL (≈ 31.5 µM).

For the compound `C=CCc1ccc(OCCCCCCCCOc2cccc3ccc(C)nc23)c(OC)c1`, the values for the selectivity ratio in data set [1] and in data set [3] were 3.8 and 0.5, respectively. For the same compound, the results for the EC50 in the data set with Leishmania panamensis [2] (setting [6]) and in the data set on Leishmania panamensis [4] (setting [7]) were 3.9 µg/mL (≈ 8.99 µM) and 29.6 µg/mL (≈ 68.3 µM), respectively. Also, in data set [5], the CC50 at 72 h worked out at 14.7 µg/mL (≈ 33.9 µM).

Consider `Cc1ccc2cccc(OCCCCCCCCOc3cc(Cl)ccc3Oc3ccc(Cl)cc3Cl)c2n1`, for which, in data set [3], the selectivity ratio was more than 2. Besides, the concentration for a half-maximal effect (EC50) with Leishmania panamensis [4] (setting [7]) was more than 100 µg/mL. Further, the CC50 at 72 h in data set [5] is more than 200 µg/mL.

Consider `Cc1ccc2cccc(O)c2n1` [8-HYDROXY QUINALDINE], for which the selectivity ratio in data set [3] amounted to 2.9. Also, the 50% effective concentration (EC50) in the data set with Leishmania panamensis [4] (setting [7]) was determined as 2.6 µg/mL (≈ 16.3 µM). Moreover, the CC50 at 72 h in data set [5] was determined as 7.6 µg/mL (≈ 47.7 µM).

As for `C=CCc1ccc(OCCCCCOc2cccc3ccc(C)nc23)c(OC)c1`, the selectivity ratio in data set [3] was determined as 1. Moreover, the EC50 in the data set on Leishmania panamensis [4] (setting [7]) came to 9.5 µg/mL (≈ 24.3 µM). In addition, the CC50 at 72 h in data set [5] came out at 10.5 µg/mL (≈ 26.8 µM).

Regarding `C=CCc1ccc(OCCCOc2cccc3ccc(C)nc23)c(OC)c1`, the selectivity ratio in data set [3] is 1. The EC50 in the data set on Leishmania panamensis [4] (setting [7]) turned out to be 6.9 µg/mL (≈ 19 µM). Moreover, in data set [5], the CC50 at 72 h turned out to be 6.8 µg/mL (≈ 18.7 µM).

As to `Oc1cc(Cl)ccc1Oc1ccc(Cl)cc1Cl` [TRICLOSAN], the selectivity ratio in data set [3] is 0.4. Moreover, the EC50 in the data set with Leishmania panamensis [4] (setting [7]) came out at 11.3 µg/mL (≈ 39 µM). In data set [5], the CC50 at 72 h is 4.8 µg/mL (≈ 16.6 µM).

For `Cc1ccc2cccc(OCCCCCCCCCCCCOc3cc(Cl)ccc3Oc3ccc(Cl)cc3Cl)c2n1`, the selectivity ratio in data set [3] was more than 2. The concentration for a half-maximal effect (EC50) in the data set with Leishmania panamensis [4] (setting [7]) was more than 100 µg/mL. Further, in data set [5], the CC50 at 72 h was more than 200 µg/mL.

With `Cc1ccc2cccc(OCCCCOc3cc(Cl)ccc3Oc3ccc(Cl)cc3Cl)c2n1`, the values for the selectivity ratio in data set [1] and in data set [3] were more than 2 and more than 20.6, respectively. Besides, the EC50 in the data set with Leishmania panamensis [2] (setting [6]) was more than 100 µg/mL; in the data set with Leishmania panamensis [4] (setting [7]), 9.7 µg/mL (≈ 19.3 µM). For the same compound, in data set [5], the CC50 at 72 h was more than 200 µg/mL.

Consider `C=CCc1ccc(OCCCCOc2cccc3ccc(C)nc23)c(OC)c1`, for which the selectivity ratio is less than 1 in data set [1] and 0.5 in data set [3]. Besides, the results for the concentration for a half-maximal effect (EC50) in the data set on Leishmania panamensis [2] (setting [6]) and in the data set with Leishmania panamensis [4] (setting [7]) were more than 31.3 µg/mL and 38.9 µg/mL (≈ 103 µM), respectively. The CC50 at 72 h in data set [5] was found to be 31.3 µg/mL (≈ 82.9 µM).

As for `C[C@@H]1[C@H](O)[C@@H](C)/C=C/C=C/C=C/C=C/C=C/C=C/C=C/[C@H](O[C@@H]2O[C@H](C)[C@@H](O)[C@H](N)[C@@H]2O)C[C@@H]2O[C@](O)(C[C@@H](O)C[C@@H](O)[C@H](O)CC[C@@H](O)C[C@@H](O)CC(=O)O[C@H]1C)C[C@H](O)[C@H]2C(=O)O` [AMPHOTERICIN B], the selectivity ratio is 970 in data set [1] and 776 in data set [3]. Also, the values for the EC50 with Leishmania panamensis [2] (setting [6]) and in the data set on Leishmania panamensis [4] (setting [7]) were 0.04 µg/mL (≈ 0.0433 µM) and 0.05 µg/mL (≈ 0.0541 µM), respectively. The CC50 at 72 h in data set [5] turned out to be 38.8 µg/mL (≈ 42 µM).

Turning to `C=CCc1ccc(O)c(OC)c1` [EUGENOL], in data set [3], the selectivity ratio was found to be 0.7. Besides, the EC50 in the data set with Leishmania panamensis [4] (setting [7]) was 21.4 µg/mL (≈ 130 µM). The CC50 at 72 h in data set [5] was 14.2 µg/mL (≈ 86.5 µM).
